21 compounds from US20100292255A1, “Therapeutic Compounds and Their Use in Treating Diseases and Disorders” (Myriad Pharmaceuticals, Inc., priority 2007, published 2010) can be followed below.

The subject of one test is T1, purified human Hsp90.
T1 construct: purified human Hsp90 (Stressgen, SPP-770)
The experiment in a line: Hsp90 binding assay: displacement of BODIPY-labeled geldanamycin measured by fluorescence polarization. Conditions: 5 μM compound; BODIPY-GM 10 nM, Hsp90 30 nM, overnight at room temperature. The method in brief:
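Fluorescence polarization measured displacement of BODIPY-geldanamycin (10 nM) from purified human Hsp90 (30 nM). The buffer was HEPES-KOH pH 7.3 with molybdate, NP-40, gamma globulin and DTT, 2% DMSO, overnight at room temperature, ex/em 485/530 nm. % inhibition was calculated against DMSO controls, and points confounded by compound fluorescence were excluded.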
`COc1cc(OC)c(Cl)c(Sc2nc3c(N)ncn(CC4CCCN(C(=O)[C@H](C)NC(=O)OC(C)(C)C)C4)c-3n2)c1` (stereo partly drawn) [compound 118, tert-Butyl {(1S)-2[3-({6-amino-8-[(2-chloro-3,5-dimethoxyphenyl)thio]-3H-purin-3-yl}methyl)piperidin-1-yl]-1-methyl-2-oxoethyl}carbamate]: the “GM displacement from purified Hsp90 measured by FP Inhibition by 5 μM compd. (%)” value worked out at 12.0%. Same read-out and setting: to `N#Cc1cc2c(cc1Sc1nc3c(N)ncn(CCC4CCN(C(=O)[C@@H](N)C(F)(F)F)CC4)c-3n1)OCO2` [compound 134, 6-[(6-amino-3-{2-[1-(3,3,3-trifluoroalanyl)piperidin-4-yl]ethyl}-3H-purin-8-yl)thio]-1,3-benzodioxole-5-carbonitrile] belongs 9.0%.

On to `CN(C)C(CCn1cnc(N)c2nc(Sc3cc4c(cc3Br)OCCO4)nc1-2)C1CC1` (stereo not drawn) [compound 143, 8-[(7-bromo-2,3-dihydro-1,4-benzodioxin-6-yl)thio]-3-[3-cyclopropyl-3-(dimethylamino)propyl]-3H-purin-6-amine], for which the “GM displacement from purified Hsp90 measured by FP Inhibition by 5 μM compd. (%)” value was found to be 27.0%.

Staying with this test, now noted: BODIPY-GM 10 nM, Hsp90 30 nM, overnight at room temperature; read-out: GM displacement from purified Hsp90 measured by FP IC 50.
As for `C[C@@H](NC(=O)OC(C)(C)C)C(=O)N1CCC(Cn2c(Sc3cc4c(cc3Br)OCCO4)nc3c(N)ncnc32)CC1` [compound 120, tert-Butyl {(1R)-2-[4-({6-amino-8-[(7-bromo-2,3-dihydro-1,4-benzodioxin-6-yl)thio]-9H-purin-9-yl}methyl)piperidin-1-yl]-1-methyl-2-oxoethyl}carbamate], the IC50 is 400 nM. Same read-out and setting: to `COc1cc(OC)c(Cl)c(Sc2nc3c(N)ncnc3n2CC2CCCN(C(=O)[C@H](C)N)C2)c1` (stereo partly drawn) [compound 123, 9-({1-[(2S)-2-Aminopropanoyl]piperidin-3-yl}methyl)-8-[(2-chloro-3,5-dimethoxyphenyl)thio]-9H-purin-6-amine] belongs 3800 nM; to `C[C@@H](N)C(=O)N1CCC(Cn2c(Sc3cc4c(cc3Br)OCCO4)nc3c(N)ncnc32)CC1` [compound 124, 9-([1-[(2R)-2-Aminopropanoyl]piperidin-4-yl}methyl)-8-[(7-bromo-2,3-dihydro-1,4-benzodioxin-6-yl)thio]-9H-purin-6-amine], 295 nM. Still for that read-out and setting: under `C[C@H](N)C(=O)N1CCC(Cn2c(Sc3cc4c(cc3Br)OCCO4)nc3c(N)ncnc32)CC1` [compound 125, 9-({1-[(2S)-2-Aminopropanoyl]piperidin-4-yl}methyl)-8-[(7-bromo-2,3-dihydro-1,4-benzodioxin-6-yl)thio]-9H-purin-6-amine] stands 500 nM. On the same count and under the same terms, under `C[C@H](O)C(=O)N[C@H](C)C(=O)N1CCC(Cn2c(Sc3cc4c(cc3Br)OCCO4)nc3c(N)ncnc32)CC1` [compound 126, (2S)-N-{(1R)-2-[4-({6-Amino-8-[(7-bromo-2,3-dihydro-1,4-benzodioxin-6-yl)thio]-9H-purin-9-yl}methyl)piperidin-1-yl]-1-methyl-2-oxoethyl}-2-hydroxypropanamide] stands over 5000 nM; under `C[C@@H](NC(=O)[C@@H](C)OC(=O)C(C)(C)C)C(=O)N1CCC(Cn2c(Sc3cc4c(cc3Br)OCCO4)nc3c(N)ncnc32)CC1` [compound 127, (1R)-2-({(1R)-2-[4-({6-amino-8-[(7-bromo-2,3-dihydro-1,4-benzodioxin-6-yl)thio]-9H-purin-9-yl}methyl)piperidin-1-yl]-1-methyl-2-oxoethyl}amino)-1-methyl-2-oxoethyl pivalate], over 5000 nM. For `C[C@@H](NC(=O)C(C)(C)C)C(=O)N1CCC(Cn2c(Sc3cc4c(cc3Br)OCCO4)nc3c(N)ncnc32)CC1` [compound 128, N-{(1R)-2-[4-({6-amino-8-[(7-bromo-2,3-dihydro-1,4-benzodioxin-6-yl)thio]-9H-purin-9-yl}methyl)piperidin-1-yl]-1-methyl-2-oxoethyl}-2,2-dimethylpropanamide], the IC50 turned out to be 440 nM. Still for that read-out and setting: to `C[C@@H](NC(=O)CC(C)(C)C)C(=O)N1CCC(Cn2c(Sc3cc4c(cc3Br)OCCO4)nc3c(N)ncnc32)CC1` [compound 129, N-{(1R)-2-[4-({6-Amino-8-[(7-bromo-2,3-dihydro-1,4-benzodioxin-6-yl)thio]-9H-purin-9-yl}methyl)piperidin-1-yl]-1-methyl-2-oxoethyl}-3,3-dimethylbutanamide] belongs 3000 nM; to `C[C@H](O)C(=O)N[C@@H](C)C(=O)N1CCC(Cn2c(Sc3cc4c(cc3Br)OCCO4)nc3c(N)ncnc32)CC1` [compound 130, (2S)—N-{(1S)-2-[4-({6-Amino-8-[(7-bromo-2,3-dihydro-1,4-benzodioxin-6-yl)thio]-9H-purin-9-yl}methyl)piperidin-1-yl]-1-methyl-2-oxoethyl}-2-hydroxypropanamide], 1100 nM; to `C[C@H](NC(=O)CO)C(=O)N1CCC(Cn2c(Sc3cc4c(cc3Br)OCCO4)nc3c(N)ncnc32)CC1` [compound 131, N-{(1S)-2-[4-({6-Amino-8-[(7-bromo-2,3-dihydro-1,4-benzodioxin-6-yl)thio]-9H-purin-9-yl}methyl)piperidin-1-yl]-1-methyl-2-oxoethyl}-2-hydroxyacetamide], 1900 nM. For `N#Cc1cc2c(cc1Sc1nc3c(N)ncnc3n1CCC1CCN(C(=O)[C@@H](N)C(F)(F)F)CC1)OCO2` [compound 133, 6-[(6-Amino-9-{2-[1-(3,3,3-trifluoroalanyl)piperidin-4-yl]ethyl}-9H-purin-8-yl)thio]-1,3-benzodioxole-5-carbonitrile], the IC50 came to 505 nM. The same measure, in the same setting: under `N#Cc1cc2c(cc1Sc1nc3c(N)ncnc3n1CCC1CCN(C(=O)[C@@H]3CC(F)(F)CN3)CC1)OCO2` [compound 135, 6-[(6-Amino-9-{2-[1-(4,4-difluoro-L-prolyl)piperidin-4-yl]ethyl}-9H-purin-8-yl)thio]-1,3-benzodioxole-5-carbonitrile] stands 900 nM. Same read-out and setting: to `C[C@@H](N)C(=O)N1CCCC(CCCn2c(Sc3cc4c(cc3Br)OCO4)nc3c(N)ncnc32)C1` (stereo partly drawn) [compound 136, 9-(3-{1-[(2R)-2-Aminopropanoyl]piperidin-3-yl}propyl)-8-[(6-bromo-1,3-benzodioxol-5-yl)thio]-9H-purin-6-amine] belongs 110 nM.

As for `CC(=O)NC(CCn1c(Sc2cc3c(cc2Br)OCO3)nc2c(N)ncnc21)C1CC1` (stereo not drawn) [compound 137, N-{3-[6-Amino-8-(6-bromo-benzo[1,3]dioxol-5-ylsulfanyl)-purin-9-yl]-1-cyclopropyl-propyl}-acetamide], the IC50 turned out to be 240 nM. The same measure, in the same setting: to `CC(=O)NC(CCn1c(Sc2cc3c(cc2Br)OCCO3)nc2c(N)ncnc21)C1CC1` (stereo not drawn) [compound 139, N-(3-{6-Amino-8-[(7-bromo-2,3-dihydro-1,4-benzodioxin-6-yl)thio]-9H-purin-9-yl}-1-cyclopropylpropyl)acetamide] belongs 240 nM. Same read-out and setting: to `CC(=O)N1CCC(CCn2c(Sc3cc4c(cc3Br)OCCO4)nc3c(N)ncnc32)CC1` [compound 140, 9-[2-(1-Acetylpiperidin-4-yl)ethyl]-8-[(7-bromo-2,3-dihydro-1,4-benzodioxin-6-yl)thio]-9H-purin-6-amine] belongs 45 nM. Still for that read-out and setting: under `Nc1ncnc2c1nc(Sc1cc3c(cc1Br)OCO3)n2CCC(NC(=O)CO)C1CC1` (stereo not drawn) [compound 141, N-(3-{6-Amino-8-[(6-bromo-1,3-benzodioxol-5-yl)thio]-9H-purin-9-yl}-1-cyclopropylpropyl)-2-hydroxyacetamide] stands 170 nM; under `CN(C)C(CCn1c(Sc2cc3c(cc2Br)OCCO3)nc2c(N)ncnc21)C1CC1` (stereo not drawn) [compound 142, 8-[(7-Bromo-2,3-dihydro-1,4-benzodioxin-6-yl)thio]-9-[3-cyclopropyl-3-(dimethylamino)propyl]-9H-purin-6-amine], 205 nM.
